For series [1], the system named is mice. As to the kind of experiment: Forced swim test after CVS and ligand microinfusion. The class given is in vivo. As to conditions: naive mice; 1 nM NPB or 1 µM CYM50769 into NAc; tested app. 24 h later. The procedure: (§1) AAVs, stereotaxic surgery and microinjection.
(§2) Behavioral tests and CVS. The acute behavioral tests forced swim test, tail suspension test, sucrose preference, splash test and novelty suppressed feeding were performed as described ^13,23. After CVS, no tail suspension test was conducted, as tail suspension is part of the stress-induction protocol. For CVS-groups, caffeine was injected at the last day of CVS (day 21), just prior to the stressor. The CVS-protocol was performed as described ^13. […] Stressors consist of one hour of either, tube restraint, tail suspension or 100 mild electric random […]. If only female experimenters were present, a used male t-shirt was wrapped in clean protective clothing from the animal unit and placed into the experimental room in order to avoid variability due to sex-specific scents of the scientists ^24. All experiments were conducted in the light phase of the light-cycle to allow comparability with previous experiments ^22.

The next series has as its system Per2. In words: qPCR of circadian gene Per2 after microinfusion into the NAc. In kind it is in vivo, mice. The following applies: 1nmolar NPB or 1 µmolar CYM50769 into NAc, tissue 24 h later.
Source text: (§3) RNA purification and quantification. […] RNA was washed in isopropanol and 75% Ethanol. […] Primer sequences are listed in the supplementary material. Quantitative PCR results were processed as described ^22.
as §1

Another series deals with Bdnf. In words: Bdnf qPCR after microinfusion of Npbwr1 ligands into the NAc. In kind it is in vivo, mice.
Source text: as §3, §1

Series [2] deals with mice. In words: Splash test after CVS and ligand microinfusion. In kind it is in vivo. The following applies: naive mice; tested app. 24 h after microinfusion. As for the experimental part: as §1, §2
Another series concerns mouse brain. As to conditions: intracerebroventricular injection; reference 15; cited from earlier work.
Series [3] relates to mice. In words: Tests for depressive-like behavior (forced swim, splash, sucrose preference) 24 h after ligand microinjection. The class given is in vivo. As to conditions: 24 h later; for behavioral effects of CVS: CVS mice, 1 nM NPB or 1 µM CYM50769 into NAc after last stress session; for depressive-like behaviors: naïve mice, 1 nM NPB or 1 µM CYM50769 into NAc. The procedure: as §1, §2
Next, the rapid effects of Npbwr1 activity were tested on depressive-like behaviors in vivo. To that end, mice underwent CVS and were microinjected with 1 nM NPB and 1 µm CYM50769 after the last session of stress induction. Behavioral tests were conducted 24 h later. […] In contrast, CYM50769 had no effects in naïve mice.

The subject of series [4] is mice. In words: Sucrose preference after CVS and ligand microinfusion. The following applies: tested app. 24 h after microinfusion. In kind it is in vivo. The procedure:
as §1, §2

The test system of a further series is Casp3. In words: qPCR of apoptosis marker Casp3 after microinfusion into the NAc. In kind it is in vivo, mice. The following applies: 1nmolar NPB or 1 µmolar CYM50769 into NAc, tissue 24 h later.
Source text: as §3, §1
For orientation: Quantitative PCR measures a nucleic acid by following its amplification.

The test system of series [5] is mice. As to the kind of experiment: Splash test after CVS and ligand microinfusion. The class given is in vivo. The following applies: tested app. 24 h after microinfusion. The procedure:
as §2, with “Drugs” for “Behavioral tests”, “chemicals. […]” for “CVS. The acute behavioral tests forced swim test, tail suspension test, sucrose preference, splash test and novelty suppressed feeding were performed as described ^13,23.”, “For CVS-groups, caffeine was injected at the last day of CVS (day 21), just prior to the stressor.” left out

In series [6] the test system is mice. In words: Forced swim test after CVS and ligand microinfusion. The class given is in vivo. The following applies: microinfused after last stress induction, tested app. 24 h later. The procedure: as §2, with “Drugs” for “Behavioral tests”, “chemicals. […]” for “CVS. The acute behavioral tests forced swim test, tail suspension test, sucrose preference, splash test and novelty suppressed feeding were performed as described ^13,23.”, “For CVS-groups, caffeine was injected at the last day of CVS (day 21), just prior to the stressor.” left out

For the next series, the system named is Bcl2. In words: qPCR of apoptosis marker Bcl2 after microinfusion into the NAc. In kind it is in vivo, mice. The following applies: 1nmolar NPB or 1 µmolar CYM50769 into NAc, tissue 24 h later.
Source text: as §3, §1

Series [7] concerns mice. The following applies: acute microinfusion into NAc.
Method: Drugs and chemicals. Mice were intraperitoneally (i.p.) injected with 7.5 mg/kg caffeine (#, C0750, Sigma) or saline at an injection volume of 10ml/kg body weight and tested 2 or 24 h later.
In order to address the rapid acting aspects of the Npbwrl-pathway, ligands were microinjected into the NAc that activate (NPB) or inhibit (CYM50769) Npbwr1. While NPB is a natural neurotransmitter, CYM50769 is a synthetic ligand, which has not been tested in vivo. […] Doses of 0.1 µM, 1 µM and 10 µM CYM50769 were injected and mice were scored for health markers for 7 days.
The subject of series [8] is NAc of wildtype (WT) and DARPP-32-T75A mutant mice. In words: RNA-sequencing of NAc 2h after caffeine injection. In kind it is in vivo. The following applies: active and inactive phases. The procedure:
(§4) Next-generation RNA-sequencing. An in-house RNA-sequencing analysis pipeline was applied as described ^25. After artificial depletion of ribosomal RNA (rRNA) transcripts from the data set, more than 90% of reads aligned to the reference genome GRCm38, indicating excellent sample quality. Only changes that reached an adjusted P-value < 0.05 and a log2FC 0.5 <> - 0.5 were further considered.
(§5) To determine caffeine-regulate transcripts, next-generation RNA-sequencing 2h after caffeine-injection on NAc of wildtype (WT) and T75A mice were performed. Tissue was collected at four time points along the diurnal clock ^14. As expected, significant changes in circadian markers were observed, which oscillated in the expected manner across the four measured time points (Per1, Per2, Cry1, Bmal), both in WT and T75A-DARPP-32 mutant mice (Figure 3). […] Altered transcripts belonged to a variety of cellular signaling pathways, including synaptic transmission, transcriptional regulation and hormonal signaling (Figure 4C).

A further series deals with circadian genes. In words: Read-counts of circadian genes (Per1, Per2, Cry, Bmal) after caffeine. The following applies: normalized read-counts for Per1, Per2, Cry, 2h after caffeine. In kind it is in vivo, mice. As for the experimental part:
as §4, §5

The subject of series [9] is mice. As to the kind of experiment: Escape behavior tests in naive WT and T75A mice 24h after caffeine. The class given is in vivo. The following applies: naïve WT mice; 7.5 mg/kg caffeine in the dark phase; tested 24h later. As for the experimental part:
as §2

The next series concerns Npbwr1. In words: Npbwr1 expression in NAc after caffeine (RNA-sequencing, qPCR). The class given is in vivo, mice.
Source text: as §3, §4, §5

In series [10] the test system is mice. As to conditions: both sexes; reference 14; cited from earlier work.
Another series relates to NAc dendritic spines. In words: NAc dendritic spine analysis after CVS and caffeine. The class given is in vivo, mice.
Source text: as §1
Dendritic spine analysis. The analysis was based on detecting the AAVs' GFP-fluorophores. Photos of 40 µm PFA-fixed brain sections were taken with a Zeiss LSM 880 confocal microscope using the AiryScan method. Maximum intensity projections were obtained using Zen Black and Zen Blue software and analysed in NeuronStudio (CNIC, Mount Sinai School of Medicine). The total density of spines, proportions of thin, mushroom and stubby spines as well as the cumulative neck-length were determined in Graph Prism. Neck-containing mushroom density refer to the sum of thin and mushroom spine densities.

The test system of series [11] is mice. In words: Behavioral tests after chronic variable stress (CVS), 24h after caffeine. The class given is in vivo. The following applies: female mice after CVS, 7.5 mg/kg caffeine i.p., tested 24h later. As for the experimental part: as §2
Where [12] appears, read: 1nmolar NPB or 1 µmolar CYM50769 microinfused into NAc, tissue collected 24 h later.

Entries after “also recorded” stand apart in the source; their conditions may differ.

The values below come from patent EP4512403A1, “NEUROPEPTIDE B AND W-RECEPTOR AS A TARGET FOR TREATING MOOD DISORDERS AND/OR CHRONIC STRESS” (Friedrich-Schiller-Universität Jena, priority 2023, dated 2025).

With “NPB: natural agonist of Npbwr1, a natural neurotransmitter; short biologically active peptide (#CSB-MP015971HU-100, Cusabio)”, the “Forced swim test, immobility time” value in the series with mice [1] is on record as “increases immobility time”. Besides, in the series with Per2, the “Per2 (circadian gene)” value was “not affected; also recorded: did not alter”. Also, the Bdnf result with Bdnf (setting [12]) is “decreases Bdnf; also recorded: altered Bdnf-levels; also recorded: opposing effect on Bdnf”. For the same compound, the “Splash test, grooming” value in the series on mice [2] is listed as “may reduce grooming”. For the same compound, in the series on mouse brain, the feeding entry is reported as “induced hyperphagia after 2 h, followed by hypophagia”. Also, in the series on mice [3], the “behavioral effects of CVS” value was “not enhancing the behavioral effects of CVS further” and the depressive-like behaviors result was “elicited depressive-like behaviors; also recorded: increased depressive-like behaviors; also recorded: mimicked chronic stress effects”. In addition, the “Sucrose preference, ratio of sucrose solution consumed” value in the series on mice [4] (naive mice) was “reduce the ratio of sucrose solution consumed”.
Take `COc1ccc(Oc2c(Cl)cnn(C3c4ccccc4-c4ccccc43)c2=O)cc1` [CYM50769]: the “Per2 (circadian gene)” value in the series with Per2 was “not affected; also recorded: did not alter”. In addition, the “Casp3 (apoptosis marker)” value in the series on Casp3 is on record as “does not alter; also recorded: Neither NPB nor CYM50769 affected”. The Bdnf result in the series with Bdnf (setting [12]) is on record as “increases Bdnf; also recorded: altered Bdnf-levels”; with Bdnf (1 µmolar CYM50769 microinfused into NAc, single dose, tissue collected 7 days later), “persists at the 7 day time point”; in the series with Bdnf (1 µmolar CYM50769 microinfused into NAc, single dose, tissue collected 7 days later, listed as CYM5069) it was “altered Bdnf levels starting at 24h for up to 7 days”. Further, the “Splash test, CVS-effects” value with mice [5] was “blocks CVS-effects”. Also, the “behavioral effects of CVS” value is “rescued CVS-effects; also recorded: blocked those” with mice [3] and “reversed effects of chronic stress on behavior” in the series with mice [3] (listed as CYM5069). Also, in the series with mice [3], the depressive-like behaviors result was “no effects”. The “Forced swim test, CVS-effects” value with mice [6] is “blocks CVS-effects”. Moreover, in the series with mice [4], the “Sucrose preference, CVS-effects” value is reported as “rescues CVS-effects”. For the same compound, in the series with Bcl2, the “Bcl2 (apoptosis marker)” value is on record as “No effect; also recorded: Neither NPB nor CYM50769 affected”. Moreover, the “selectivity and tolerability of an acute dose” value in the series with mice [7] was “selective and well tolerated”.
For `Cn1c(=O)c2c(ncn2C)n(C)c1=O` [caffeine], the caffeine-induced transcriptional changes entry in series [8] is given as “biggest effect of caffeine occurs in WT in the active phase; also recorded: occurred in WT in the active (dark) phase”. For the same compound, in the series with circadian genes, the “amplitude of circadian oscillations” value was “may slightly flatten the amplitude”. Besides, the Escape behaviors result with mice [9] is “altered”. The Npbwr1 levels entry in the series on Npbwr1 (24h after caffeine injection, dark phase) is reported as “decreased; also recorded: reduced”. In the series with Npbwr1 (WT mice, 2h after caffeine injection, end of the dark phase), the Npbwr1 expression entry was “increased”. Also, the mood-elevating effects entry in the series with mice [10] is on record as “only occurred in the active (dark) phase”. In addition, the “CVS-induced changes in NAc dendritic spines” value with NAc dendritic spines (females, 24h after caffeine injection) was “reversed by caffeine back to naive levels”. Besides, the Cumulative head diameter entry is listed as “reversed” in the series with NAc dendritic spines (females, CVS, 24h after caffeine) and “reversed” with NAc dendritic spines (males, CVS, caffeine). In addition, the CVS-induced spine changes result in the series on NAc dendritic spines (males, CVS, caffeine) is “partially reversed”. The stress-induced behavioral changes result in the series on mice [11] was “reversed; also recorded: improved stress-induced behavioral changes”.
